According to US9657348B2, “Method of screening compounds for the treatment of diabetes” (ATROGI AB, priority 2013, dated 2017):
Entries after “also recorded” stand apart in the source; their conditions may differ. Starred links: 1 amine or outer side, 2 acyl side, 3 side chain; linkers in the order of their positions; H or OH if unused. Positions of bridges follow the written chain, without caps; N, C: chain ends. Non-standard residues stand in square brackets, D forms with d. Residues, ends and D or L forms follow the SMILES beside them. Chains are numbered I, II in the order given. Actinocin(9to1) = Cc1c2oc3c(C)ccc(C(=O)[*:1])c3nc-2c(C(=O)[*:2])c(N)c1=O; NMeV = CN[C@H](C(=O)O)C(C)C; Sar = CNCC(=O)O

Assays:
[1] = tested on: GLUT4; experiment: GLUT4 translocation to plasma membrane by immunocytochemistry in L6 cells; assay type: cell-based, rat; settings: non-permeabilized L6 myoblasts; 1 μM, 2 h
[2] = tested on: human skeletal muscle cells (SKMC); experiment: 3H-2-deoxyglucose uptake in human skeletal muscle cells; assay type: cell-based; settings: FIG. 1C
Procedure: (§1) Soleus muscles were dissected from Sprague-Dawley rats and suspended in Krebs-Henseleit bicarbonate (KHB) buffer (118.5 mM NaCl, 4.7 mM KCl, 1.2 mM KH2PO4, 25 mM NaHCO3, 2.5 mM CaCl2, 1.2 mM MgSO4, 5 mM HEPES) in organ baths containing 30 ml KHB containing 5 mM glucose and 15 mM mannitol, bubbled with 95% O2/5% CO2 (pH 7.4) and maintained at 37° C. […] Muscles were rinsed with KHB (20 mM mannitol) for 10 min, then incubated in KHB (8 mM 3-O-methylglucose and 12 mM mannitol with 438 μCi/mmol 3-O-methyl[3H]glucose (80.2 Ci/mmol; PerkinElmer) and 42 μCi/mmol [^14C] mannitol (58.8 mCi/mmol; PerkinElmer, USA)) for 12 min. Muscles were then rinsed with PBS and frozen in liquid nitrogen, weighed and dissolved in 1 mL of 0.5M NaOH at 60° C. ^3H and ^14C were measured by liquid scintillation counting. Total muscle 3-O-methylglucose and extracellular space were measured as described previously (Zierath 1995). Intracellular 3-O-methylglucose accumulation was calculated by: (Total muscle 3-O-methylglucose)−(extracellular 3-O-methylglucose)=intracellular 3-O-methylglucose. This was then expressed as a rate of 3-O-methylglucose transport per mL of intracellular water per hour. Glucose uptake was measured in L6 skeletal muscle cells and in human skeletal muscle cells (SKMC) grown in 12-well plates using ^3H-2-deoxyglucose as previously described (Nevzorova et al. 2002) with minor modifications. […]

[3] = tested on: cAMP; experiment: cAMP content over time in L6 myotubes; assay type: cell-based, rat; settings: for maximum difference in cAMP versus cells not brought into contact (Δ1): L6 myotubes
Procedure: Further, to determine whether contacting BRL37344 causes a response of a classical secondary messenger in cells with which it is brought into contact, the concentration of cAMP was measured during a period of time. As a reference, cAMP in cells not brought into contact was measured. In FIG. 9A the difference Δ1 for BRL37344 is plotted, and the maximum difference is about 8 pmol. […] The calculated value of r″ therefore is 8/45=0.18.

[4] = tested on: soleus muscle; experiment: 3-O-methylglucose transport (glucose uptake) in isolated soleus muscle; assay type: cell-based; settings: soleus muscle from rat; FIG. 1A
Procedure: as §1

[5] = tested on: L6 skeletal muscle cells; experiment: 3H-2-deoxyglucose uptake in L6 myotubes, with or without inhibitors or GRK2 siRNA; assay type: cell-based, rat; settings: for glucose uptake / effect of GRK2 knock-down with siRNA on glucose uptake stimulated by the substance / basal glucose uptake in presence of inhibitor / insulin- and GPCR-stimulated glucose uptake in presence of inhibitor: L6 myotubes; for glucose uptake: stimulation with drug; for effect of GRK2 knock-down with siRNA on glucose uptake stimulated by the substance: FIG. 7, FIG. 9B; for basal glucose uptake in presence of inhibitor / insulin- and GPCR-stimulated glucose uptake in presence of inhibitor: inhibitor pretreatment 30 min; for insulin- and GPCR-stimulated glucose uptake in presence of inhibitor: then insulin or GPCR stimulation
Procedure: Cells were grown as in Example 1. Cells were pretreated with inhibitors for 30 min and then exposed to GPCR stimulation.
GRK2 siRNA constructs (Sigma Aldrich) as well as control sequence was transfected into L6 mytoubes by electroporation. Differentiated L6 cells were detached by washing in PBS followed by 5 minutes of incubation in trypsin/EDTA (0.1% trypsin w/v, 0.02% EDTA w/v). The detached cells were transferred to Eppendorf tubes and centrifugation at 1000×g for 3 minutes was performed before supernatant was removed and the cells were resuspended in 20 μl/well of SE Cell Line Nucleofector® (Lonza) and 100 nM siRNA. Cells were transferred to a 16-well microcuvette plate (Lonza) and were electroporated in a 4D-Nucleofector® (Lonza). 80 μl of pre-warmed RPMI1640 medium were added to the each microcuvette well for 5 min before the cells were transferred to the Eppendorf tubes containing culture media. Cells were serum starved over night and glucose uptake measured 24 hours after transfection.
Glucose uptake was detected by ^3H-2-dexoy-glucose as previously described (Nevzorova 2002), with minor modifications. Differentiated L6-myotubes were serum-starved over night in media containing 0.5% fatty-acid free BSA and stimulated with agonists for totally 2 h, unless otherwise stated. Cells were exposed to 50 nM ^3H-2-dexoy-glucose in glucose free media for 6-10 minutes before the experiment was ended by washing the cells in ice-cold PBS or glucose free media. Cells were lysed in 0.2 M NaOH for 1 h in 60° C., mixed with scintillation buffer (Emulsifier Safe, Perkin Elmer) and radioactivity detected in a β-counter (Tri-Carb 2800TR, Perkin Elmer).

[6] = tested on: Human prostate carcinoma (22rv1) cells; experiment: Glucose uptake in 22rv1 cells with or without GRK2 siRNA; assay type: cell-based; settings: FIG. 8
Procedure: Human prostate carcinoma (22rv1) cells were grown for 7 days in RPMI-1640 medium. […] At day 7, 22rv1 cells were treated with siRNA. siRNA constructs GRK2 (Sigma Aldrich) as well as control sequence were transfected into 22rv1 cells by lipofectamine (Life Technologies Corp.) according to the manufacturer's protocol. Cells were serum starved over night and glucose uptake was measured 24 hours after transfection. Cells were stimulated with drugs for totally 2 h, unless otherwise stated.

[7] = tested on: L6 skeletal muscle cells; experiment: Cell viability of L6 cells under transcription/translation inhibitor

`CC(C)NCC(O)c1ccc(O)c(O)c1` (racemic) [isoproterenol, (RS)-4-[1-hydroxy-2-(isopropylamino)ethyl]benzene-1,2-diol] was tested, and the “GLUT4 recruitment to the plasma membrane” value [1] was “GLUT4 recruitment to the plasma membrane to the same extent”, the glucose uptake [2] was “leads to glucose uptake” and the “maximum difference in cAMP versus cells not brought into contact (Δ1)” value ([3]; FIG. 9A) was “about 45 pmol”. For the same compound, the glucose uptake [4] was “leads to glucose uptake”.
For `C[C@H](Cc1ccc(OCC(=O)O)cc1)NC[C@H](O)c1cccc(Cl)c1` (relative stereo) [BRL37344, (±)-(R*,R*)-[4-[2-[[2-(3-chlorophenyl)-2-hydroxy-ethyl]amino]propyl]phenoxy]acetic acid], the “ratio r″ (cAMP response of compound / cAMP response of isoproterenol)” value ([3]; 8/45) was 0.18, the “maximum difference in cAMP versus cells not brought into contact (Δ1)” value ([3]; FIG. 9A) was “about 8 pmol” and the “contents of cAMP over basal” value ([3]; skeletal muscle cells (L6 myotubes), all time points, FIG. 9A) was “did not significantly increase”. For the same compound, the “glucose uptake in % of the glucose uptake of the same cells brought into contact with vehicle only” value ([5]; (untransfected) cells expressing GRK2, FIG. 9B) was 175%, the glucose uptake [5] was “stimulate glucose uptake” and the “effect of GRK2 knock-down with siRNA on glucose uptake stimulated by the substance” value [5] was “significantly inhibited”. For the same compound, the “glucose uptake in % of vehicle” value ([5]; transfected (GRK2 siRNA) cells not expressing GRK, FIG. 9B) was 125%.
With `CS(=O)(=O)Nc1c(O)ccc2c1CCCC2C1=NCCN1` (centres unmarked) [A61603] the “effect of GRK2 down-regulation with siRNA on glucose uptake stimulated by the substance” value (“effect of GRK2 down-regulation” below) [6] was “inhibited”.
`O=C(CCc1ccc(O)cc1)c1c(O)cc(O)cc1O` [Phloretin, phloretin] was tested, and the “basal glucose uptake in presence of inhibitor” value [5] was “blocked basal glucose uptake” and the “insulin- and GPCR-stimulated glucose uptake in presence of inhibitor” value [5] was “significantly reduced”.
`Cc1c2oc3c(C)ccc(C(=O)N[C@@H]4C(=O)N[C@H](C(C)C)C(=O)N5CCC[C@H]5C(=O)N(C)CC(=O)N(C)[C@@H](C(C)C)C(=O)O[C@@H]4C)c3nc-2c(C(=O)N[C@@H]2C(=O)N[C@H](C(C)C)C(=O)N3CCC[C@H]3C(=O)N(C)CC(=O)N(C)[C@@H](C(C)C)C(=O)O[C@@H]2C)c(N)c1=O` [actinomycin, Actinomycin D] (I: T[dV]P[Sar][NMeV] / II: T[dV]P[Sar][NMeV]; ester I:1-I:C, II:1-II:C; linker I:N-II:N via Actinocin(9to1)) was tested, and the cell viability [7] was “did not significantly affect”, the “basal glucose uptake in presence of inhibitor” value [5] was “did not significantly affect” and the “insulin- and GPCR-stimulated glucose uptake in presence of inhibitor” value [5] was “did not significantly affect”.
`C[C@@H]1C[C@@H]([C@H](O)CC2CC(=O)NC(=O)C2)C(=O)[C@@H](C)C1` [cyclohexamide] was tested, and the “basal glucose uptake in presence of inhibitor” value [5] was “did not affect” and the “insulin- and GPCR-stimulated glucose uptake in presence of inhibitor” value [5] was “did not affect”.
With `C=C1[C@@H](C)[C@H]2[C@H](Cc3ccccc3)NC(=O)[C@]23OC(=O)/C=C/[C@H](O)CCC[C@@H](C)C/C=C/[C@H]3[C@@H]1O` [cytochalasin B] the “basal glucose uptake in presence of inhibitor” value [5] was “reduced basal glucose uptake” and the “insulin- and GPCR-stimulated glucose uptake in presence of inhibitor” value [5] was “reduced”.
`CC(C)(C)NC(=O)[C@@H]1CN(Cc2cccnc2)CCN1C[C@@H](O)C[C@@H](Cc1ccccc1)C(=O)N[C@H]1c2ccccc2C[C@H]1O` [indinavir] was tested, and the “basal glucose uptake in presence of inhibitor” value [5] was “blocked basal glucose uptake” and the “insulin- and GPCR-stimulated glucose uptake in presence of inhibitor” value [5] was “significantly reduced”.
`NC[C@H](O)c1ccc(O)c(O)c1` [norepinephrine (NA), norepinephrine] was tested, and the “effect of GRK2 down-regulation” value [6] was “inhibited”.
In the case of `Cc1cc(C(C)(C)C)c(O)c(C)c1CC1=NCCN1` [oxymetazoline], the “effect of GRK2 down-regulation” value [6] is reported as “inhibited”.
For insulin, the “effect of GRK2 down-regulation” value [6] was “does not inhibit”, the “GLUT4 recruitment to the plasma membrane” value [1] was “GLUT4 recruitment to the plasma membrane to the same extent” and the glucose uptake [5] was “increased glucose uptake”. For the same compound, the “effect of GRK2 knock-down with siRNA on glucose uptake stimulated by the substance” value [5] was “could not be blocked; also recorded: does not inhibit”.
